{
  "source": "ChEMBL document CHEMBL1130678",
  "about": "“Thio-sugars. IV: Design and synthesis of S-linked fucoside analogs as a new class of alpha-L-fucosidase inhibitors” (Bioorg Med Chem Lett, 1998)",
  "biological_target": "T1, Tissue alpha-L-fucosidase (Homo sapiens, UniProt P04066)",
  "T1 sequence (P04066 whole entry)": "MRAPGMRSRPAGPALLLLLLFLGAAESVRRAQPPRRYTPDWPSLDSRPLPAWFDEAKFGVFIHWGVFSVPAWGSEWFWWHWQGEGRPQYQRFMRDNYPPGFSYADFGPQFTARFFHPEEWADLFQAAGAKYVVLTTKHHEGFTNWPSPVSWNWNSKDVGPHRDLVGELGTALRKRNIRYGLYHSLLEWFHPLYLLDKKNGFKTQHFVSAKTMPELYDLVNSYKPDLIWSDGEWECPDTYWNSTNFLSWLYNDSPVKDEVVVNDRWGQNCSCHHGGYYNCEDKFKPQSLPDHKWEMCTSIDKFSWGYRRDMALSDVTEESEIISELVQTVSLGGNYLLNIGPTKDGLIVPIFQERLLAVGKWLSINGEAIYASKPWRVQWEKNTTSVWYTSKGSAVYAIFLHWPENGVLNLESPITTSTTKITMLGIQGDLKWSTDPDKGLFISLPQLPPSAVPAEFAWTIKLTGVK",
  "assay": "Inhibitory activity against alpha-L-fucosidase in human placenta at PH of 6.5; Mixed Inhibition type",
  "data": [
    {"smiles": "CC(=O)NCSC1OC(C)C(O)C(O)C1O", "note": "(stereo unspecified)", "values": [
      {"measurement": "Ki", "result": 3.9, "unit": "µM"}
    ]}
  ]
}
